Measurements reported in patent publication US11008360B2, “Indoleacetic acid derivative and preparation method and pharmaceutical use thereof” (Institute of Chinese Materia Medica, China Academy of …, priority 2017, dated 2021).
Marks after values point to notes of the source that are not given here.

Columns and labels:
[1] = test system: tracheal phenol red excretion amount in mice; assay: Phlegm-reducing effect (tracheal phenol red excretion); type: in vivo, Kunming mice; conditions: x ± s, n=16
Excerpt: Test animals: Kunming mice (body weight 18-22 g, half male and half female), purchased from Beijing Vital River Laboratory Animal Technology Co., Ltd. Test reagent: Ammonium chloride (Guangzhou Chemical Reagent Factory). The devices were the same as in Test Example 1. According to the method of LI Yikui's phlegm-reducing test, the mice were fed normally for 3 days, and then randomly grouped into blank control group, compound of the present invention group, and ammonium chloride-positive control group. […] The phenol red excretion amount was calculated from the phenol red standard curve, and the significance of the difference between the groups was compared. Statistical method: data analysis of the experimental data was carried out with SPSS 10.0 statistical software, and t-test was used for comparison between groups.

[2] = test system: aqueous ammonia-induced cough in mice; assay: Aqueous ammonia-induced cough test; type: in vivo, Kunming mice; conditions: x ± s, n=16
Excerpt: Test animals: Kunming mice (body weight 18-22 g, half male and half female), purchased from Beijing Vital River Laboratory Animal Technology Co., Ltd., with Certificate No.: SCXK-(Beijing)2012-001.
(§1) Test reagent: Codeine phosphate (Europharm Laboratoires Co., Ltd.).
Device: YC-Y800 Medical ultrasonic nebulizer (Beijing Yadu Technology Co., Ltd., with Beijing Pharmaceutical Supervision Certificate No.: Beijing 99 No. 223145); UV-2450 UV-visible spectrophotometer (Shimadzu Co., Japan); UX420S Animal balance (Shimadzu Co., Japan); and milli electronic balance (Sartorius Co., Germany).
The mice were adaptively fed for 3 days followed by screening. The ultrasonic nebulizer was preheated, and added with 40 ml of fresh aqueous ammonia solution (12.5%). The mice were placed in 1000 ml beaker. The beaker's mouth was sealed with a plastic wrap with two holes opened (one for inserting the ultrasonic atomizer outlet tube, and the other for ventilation). Ammonia was continuously introduced by the ultrasonic atomizer at its minimal power for 60 seconds, followed by stopping the ultrasonic atomizer immediately. The plastic wrap was quickly opened to allow the ammonia to diffuse naturally. Mice which coughed for less than 10 times or more than 80 times within three minutes were excluded. The qualified mice were randomly grouped into blank control group, compound of the present invention group, and codeine phosphate-positive control group. The above groups were intragastrically administrated with the drugs according to body weight, and the blank control group was administrated with equal volume of distilled water. The administration was carried out once a day for five consecutive days. The mice were placed one by one in an inverted 5 L sealed glass bell jar for one hour after the last administration, and treated by a constant pressure ammonia spray stimulation for 15 seconds (10 mL of ammonia spray/time for one mouse, and changed each time). After the stimulation stopped, the mice were taken out to observe the latentperiod of the cough of the mice (the time from spraying starting to coughing starting) and the number of coughs within 2 minutes (cough was identified by severely contracting the abdominal muscles and opening the mouth, with a slight cough sound sometimes).
(§2) Statistical method: data analysis of the experimental data was carried out with SPSS 10.0 statistical software, and t-test was used for comparison between groups.

[3] = test system: citric acid-induced cough in guinea pigs; assay: Citric acid-induced cough test; type: in vivo; conditions: x ± s
Excerpt: Test animals: Guinea pigs (body weight 180-220 g, half male and half female), purchased from Beijing Vital River Laboratory Animal Technology Co., Ltd.
as §1
The devices are the same as in Test Example 1.
The guinea pigs were adaptively fed for 1 day followed by preliminary screening.
The guinea pigs were placed one by one in an inverted 5 L sealed glass bell jar, and treated by a constant pressure spray stimulation (17.5% citric acid solution) for one minute. The number of coughs within 5 minutes from the spray was recorded, and the guinea pigs which coughed more than 10 times were chosen as qualified test animals. The qualified guinea pigs were randomly grouped into blank control group, compound of the present invention group, and codeine phosphate-positive control group. The above groups were intragastrically administrated with the drugs according to body weight, and the blank control group was administrated with equal volume of distilled water. The intragastrical administration was carried out for five consecutive days. The guinea pigs were placed in an inverted 5 L sealed glass bell jar for one hour after the last administration, and treated by the nebulizer for 30 seconds. The latentperiod of the cough of the guinea pigs (the time from starting spraying of 17.5% citric acid to coughing starting) and the number of coughs within 5 minutes were observed.
as §2

[4] = positive control dose 15 mL·kg^-1 intragastric once a day for five days
[5] = 20 mg·kg^-1 intragastric once a day for five days, ammonia spray 1 h after last administration
[6] = 20 mg·kg^-1 intragastric for five days, 17.5% citric acid spray 1 h after last administration
[7] = 20 mg·kg^-1 intragastric for five days, phenol red i.p. 30 min after last administration

Row | Structure (SMILES) | Tracheal phenol red excretion amount ([1]; positive control dose 1000 mg·kg^-1 intragastric for five days) [mg/L] | Latentperiod [2, 4] [s] | Number of coughs [2, 4] [times/2 min] | Latentperiod ([3]; positive control dose 15 mL·kg^-1 intragastric for five days, n=18) [s] | Latentperiod [2, 5] [s] | Number of coughs [2, 5] [times/2 min] | Latentperiod [3, 6] [s] | Tracheal phenol red excretion amount [1, 7]
1 | Cl.N [Ammonium chloride, reference compound] | 1.068 ± 0.224 |  |  |  |  |  |  | 
2 | COc1ccc2c3c1O[C@H]1[C@@H](O)C=C[C@H]4[C@@H](C2)N(C)CC[C@@]341 [Codeine phosphate, reference compound] |  | 48.3 ± 5.9 | 14.2 ± 6.5 | 107 ± 41 |  |  |  | 
3 | O=C(O)C[C@@H](NC(=O)Cc1cn([C@@H]2O[C@H](CO)[C@@H](O)[C@H](O)[C@H]2O)c2ccccc12)C(=O)O [Compound 1, (2-(1-((2R,3R,4S,5S,6R)-3,4,5-trihydroxy-6-(hydroxymethyl)tetrahydro-2H-pyran-2-yl)-1H-indol-3-yl)acetyl)-D-aspartic acid] |  |  |  |  | 45.8 ± 8.2 | 19.1 ± 10.7 | 147 ± 89 | 1.125 ± 0.129 mg/L
4 | O=C(O)CC[C@@H](NC(=O)Cc1cn([C@@H]2O[C@H](CO)[C@@H](O)[C@H](O)[C@H]2O)c2ccccc12)C(=O)O [Compound 2, (2-(1-((2R,3R,4S,5S,6R)-3,4,5-trihydroxy-6-(hydroxymethyl)tetrahydro-2H-pyran-2-yl)-1H-indol-3-yl)acetyl)-D-glutamic acid] |  |  |  |  | 48.5 ± 9.4 | 17.3 ± 4.6 | 98 ± 59 | 0.988 ± 0.211 mg/L
5 | Cc1ccc2c(c1)c(CC(=O)N[C@H](CC(=O)O)C(=O)O)cn2[C@@H]1O[C@H](CO)[C@@H](O)[C@H](O)[C@H]1O [Compound 3, (2-(5-methyl-1-((2R,3R,4S,5S,6R)-3,4,5-trihydroxy-6-(hydroxymethyl)tetrahydro-2H-pyran-2-yl)-1H-indol-3-yl)acetyl)-D-aspartic acid] |  |  |  |  | 38.1 ± 5.3 | 20.7 ± 5.2 | 128 ± 65 | 0.971 ± 0.114 mg/L
6 | COc1ccc2c(c1)c(CC(=O)N[C@H](CC(=O)O)C(=O)O)cn2[C@@H]1O[C@H](CO)[C@@H](O)[C@H](O)[C@H]1O [Compound 4] |  |  |  |  | 40.3 ± 5.5 | 18.5 ± 4.3 | 120 ± 55 | 1.072 ± 0.221 mg/L
7 | O=C(O)C[C@@H](NC(=O)Cc1cn([C@@H]2O[C@H](CO)[C@@H](O)[C@H](O)[C@H]2O)c2ccc(Cl)cc12)C(=O)O [Compound 5, (2-(5-chloro-1-((2R,3R,4S,5S,6R)-3,4,5-trihydroxy-6-(hydroxymethyl)tetrahydro-2H-pyran-2-yl)-1H-indol-3-yl)acetyl)-D-aspartic acid] |  |  |  |  | 42.6 ± 11.2 | 19.6 ± 5.1 | 110 ± 32 | 0.831 ± 0.107 mg/L
8 | O=C(O)C[C@@H](NC(=O)Cc1cn([C@@H]2O[C@H](CO)[C@@H](O)[C@H](O)[C@H]2O)c2ccc(Br)cc12)C(=O)O [Compound 6, (2-(5-bromo-1-((2R,3R,4S,5S,6R)-3,4,5-trihydroxy-6-(hydroxymethyl)tetrahydro-2H-pyran-2-yl)-1H-indol-3-yl)acetyl)-D-aspartic acid] |  |  |  |  | 40.7 ± 5.2 | 21.8 ± 7.3 | 127 ± 52 | 0.888 ± 0.145 mg/L
9 | Cc1cccc2c(CC(=O)N[C@H](CC(=O)O)C(=O)O)cn([C@@H]3O[C@H](CO)[C@@H](O)[C@H](O)[C@H]3O)c12 [Compound 7] |  |  |  |  | 42.1 ± 7.2 | 18.6 ± 8.5 | 130 ± 22 | 0.956 ± 0.270 mg/L
10 | COc1cccc2c(CC(=O)N[C@H](CC(=O)O)C(=O)O)cn([C@@H]3O[C@H](CO)[C@@H](O)[C@H](O)[C@H]3O)c12 [Compound 8] |  |  |  |  | 39.6 ± 5.5 | 19.2 ± 4.7 | 110 ± 32 | 1.142 ± 0.132 mg/L
11 | Cc1ccc2c(c1)c(CC(=O)N[C@H](CCC(=O)O)C(=O)O)cn2[C@@H]1O[C@H](CO)[C@@H](O)[C@H](O)[C@H]1O [Compound 9] |  |  |  |  | 38.1 ± 4.7 | 23.8 ± 5.1 | 121 ± 47 | 1.089 ± 0.139**^1 mg · L^−1
12 | O=C(O)CC[C@@H](NC(=O)Cc1cn([C@@H]2O[C@H](CO)[C@@H](O)[C@H](O)[C@H]2O)c2ccc(Cl)cc12)C(=O)O [Compound 10] |  |  |  |  | 39.4 ± 4.1 | 19.4 ± 6.3 | 139 ± 41 | 0.962 ± 0.101 mg/L
